The target in assay [1] is T1, PIKFYVE (Homo sapiens, UniProt Q9Y2I7).
T1 construct: host or cells: HEK293 (ATCC, CRL-1573)
Kind of assay: NanoBRET TE Intracellular Kinase Assay, interaction of PIKFYVE and compounds in HEK293 cells. The assay is classed as cell-based. The conditions noted are these: IC50 class from BRET; HEK293 cells expressing PIKFYVE-NanoLuc; 2 hours incubation. The procedure:
To predict the efficacy of the compounds according to Example on PIKFYVE in humans, the interaction between PIKFYVE and the compounds was tested using the HEK293 cell line derived from human embryonic kidney (ATCC, CRL-1573) via NanoBRETT TE Intracellular Kinase Assay Service of Carna biosciences Inc., (Japan). The evaluation method provided by Carna biosciences Inc., was shown below and the NanoBRET™ TE Intracellular Kinase Assay, K-8 Kit (Promega, CS1810C88) was used.
The HEK-293 cells cultured in Opti-MEM™ I Reduced Serum Medium (Thermo Fisher, 11058-021) were transfected with Transfection Carrier DNA (Promega, E4881), PIKFYVE-NanoLuc Fusion Vector (Promega, CS1810C225), and FuGENE HD Transfection Reagent (Promega, E2311) to produce cells expressing genes combining PIKFYVE and NanoLuc, followed by culturing 100 μl (2×10^5 cells/ml) each in 96-well plates (Corning, 3917).
10× compounds according to Examples or Comparative Examples prepared by concentration in 1× NanoBRET™ tracer reagent and DMSO were reacted in 96-well plates and incubated for 2 hours in a 37° C., 5% CO2 incubator.
After the reaction was completed, 3× Complete NanoBRET™ Nano-Glo Substrate solution was added to each well, and the reaction was allowed to run for 2-3 minutes at room temperature before BRET was measured using a GloMax Discover Multimode Microplate Reader (Promega).

For assay [2], the target named is T2, human GST-PIKFYVE (Homo sapiens, UniProt Q9Y2I7).
T2 construct: GST; purchased Carna biosciences 11-118
T2 sequence (Q9Y2I7 whole entry): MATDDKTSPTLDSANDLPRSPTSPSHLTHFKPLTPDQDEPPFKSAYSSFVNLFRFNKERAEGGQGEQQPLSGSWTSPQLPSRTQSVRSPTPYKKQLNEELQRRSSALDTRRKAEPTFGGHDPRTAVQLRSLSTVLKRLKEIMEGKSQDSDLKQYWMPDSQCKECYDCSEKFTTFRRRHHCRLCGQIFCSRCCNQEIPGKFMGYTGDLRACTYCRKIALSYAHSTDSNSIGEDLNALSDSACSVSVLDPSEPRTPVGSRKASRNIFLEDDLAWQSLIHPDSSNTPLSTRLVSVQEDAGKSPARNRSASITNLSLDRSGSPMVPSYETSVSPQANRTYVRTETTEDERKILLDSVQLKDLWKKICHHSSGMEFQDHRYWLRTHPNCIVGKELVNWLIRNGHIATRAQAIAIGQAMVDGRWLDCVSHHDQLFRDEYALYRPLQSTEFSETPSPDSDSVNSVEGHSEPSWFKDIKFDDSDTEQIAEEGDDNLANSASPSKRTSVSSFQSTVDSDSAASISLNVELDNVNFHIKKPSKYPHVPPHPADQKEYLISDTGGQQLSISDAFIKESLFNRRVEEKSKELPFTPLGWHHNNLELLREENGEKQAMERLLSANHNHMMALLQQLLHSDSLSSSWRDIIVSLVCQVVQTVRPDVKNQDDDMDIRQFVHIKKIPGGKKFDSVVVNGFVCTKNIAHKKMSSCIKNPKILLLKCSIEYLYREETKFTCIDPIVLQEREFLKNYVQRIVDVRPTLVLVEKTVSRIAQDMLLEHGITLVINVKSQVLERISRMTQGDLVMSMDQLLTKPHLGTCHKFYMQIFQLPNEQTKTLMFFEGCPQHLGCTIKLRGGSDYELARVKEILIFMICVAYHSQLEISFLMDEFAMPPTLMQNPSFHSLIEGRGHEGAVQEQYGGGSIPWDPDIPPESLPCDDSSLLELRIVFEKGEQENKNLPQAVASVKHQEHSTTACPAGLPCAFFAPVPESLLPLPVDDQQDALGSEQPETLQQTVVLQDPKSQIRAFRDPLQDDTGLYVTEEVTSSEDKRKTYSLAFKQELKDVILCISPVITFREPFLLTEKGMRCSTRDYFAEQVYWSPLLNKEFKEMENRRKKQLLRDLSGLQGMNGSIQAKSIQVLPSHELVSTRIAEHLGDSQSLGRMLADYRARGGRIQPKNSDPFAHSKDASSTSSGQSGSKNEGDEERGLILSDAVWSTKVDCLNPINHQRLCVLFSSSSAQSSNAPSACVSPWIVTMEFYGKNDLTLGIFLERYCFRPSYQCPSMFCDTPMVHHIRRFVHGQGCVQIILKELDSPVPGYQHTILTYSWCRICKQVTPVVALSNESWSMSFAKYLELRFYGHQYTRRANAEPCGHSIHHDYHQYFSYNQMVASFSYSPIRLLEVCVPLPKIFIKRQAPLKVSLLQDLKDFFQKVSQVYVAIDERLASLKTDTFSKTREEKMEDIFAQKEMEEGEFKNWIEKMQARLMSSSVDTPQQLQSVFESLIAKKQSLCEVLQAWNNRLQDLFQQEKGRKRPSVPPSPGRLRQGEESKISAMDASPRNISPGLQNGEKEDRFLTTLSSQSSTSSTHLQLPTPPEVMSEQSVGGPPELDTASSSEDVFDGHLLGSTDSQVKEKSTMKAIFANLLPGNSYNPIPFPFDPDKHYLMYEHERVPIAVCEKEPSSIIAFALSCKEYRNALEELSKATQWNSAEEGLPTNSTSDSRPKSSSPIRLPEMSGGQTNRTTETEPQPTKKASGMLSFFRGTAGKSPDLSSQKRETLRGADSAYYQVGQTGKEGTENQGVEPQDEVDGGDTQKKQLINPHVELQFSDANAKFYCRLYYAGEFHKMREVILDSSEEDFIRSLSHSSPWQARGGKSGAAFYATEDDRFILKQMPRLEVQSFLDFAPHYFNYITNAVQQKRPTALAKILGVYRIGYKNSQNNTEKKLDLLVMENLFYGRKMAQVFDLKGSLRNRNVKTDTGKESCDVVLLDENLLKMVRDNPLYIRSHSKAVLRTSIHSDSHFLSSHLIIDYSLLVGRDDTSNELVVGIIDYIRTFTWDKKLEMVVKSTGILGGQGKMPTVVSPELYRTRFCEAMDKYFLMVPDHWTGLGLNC
Description: ADP-Glo kinase assay, enzyme inhibition activity against human PIKFYVE (Carna biosciences). The assay is classed as biochemical. To be noted: inhibitory activity at final compound concentration 10 nM; 1 hour at room temperature. In a few lines:
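Human GST-PIKFYVE (glutathione Sepharose-purified) was reacted with substrate and ATP for 1 h at room temperature in 50 mM MOPS, 1 mM DTT, pH 7.2, with compound at 10 nM final. ADP formed was read by ADP-Glo luminescence; inhibition was calculated against no-enzyme (100%) and no-compound (0%) controls.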
A general note: ADP-Glo first removes unused ATP, then detects ADP through luciferase.

SMILES strings stand for the structures.

T1 sequence (Q9Y2I7 whole entry): as above

In assay [1], `Cc1cccc(-c2ccn(-c3nc(N4CCOCC4)nc4c3ncn4-c3ccncc3)n2)c1` [Example 107, 4-(9-(pyridin-4-yl)-6-(3-(m-tolyl)-1H-pyrazol-1-yl)-9H-purin-2-yl)morpholine] displayed an IC50 of no more than 0.01 µM. The “ADP-Glo kinase assay (%, 10 nM)” value in assay [2] was 82.62%.

On to `Cc1cccc(/C=N/Nc2nc(N3CCOCC3)nc3c2ncn3-c2ccncc2)c1` [Example 103, (E)-4-(6-(2-(3-methylbenzylidene)hydrazinyl)-9-(pyridin-4-yl)-9H-purin-2-yl)morpholine], for which, in assay [1], the IC50 is no more than 0.01 µM. Also, the “ADP-Glo kinase assay (%, 10 nM)” value in assay [2] is listed as 91.20%.

For `Cc1cccc(/C=N/Nc2nc(N3CCOCC3)nc3c2ncn3-c2ccnc(O)c2)c1` [Example 102, (E)-4-(6-(2-(3-methylbenzylidene)hydrazinyl)-2-morpholino-9H-purin-9-yl)pyridin-2-ol], in assay [1], the IC50 was no more than 0.01 µM. Also, in assay [2], the “ADP-Glo kinase assay (%, 10 nM)” value is recorded as 91.19%.

Consider `Cc1cccc(/C=N/Nc2nc(N3CCOCC3)nc3c2ncn3C2CCN(C(=O)N3CCOCC3)CC2)c1` [Example 88, (E)-(4-(6-(2-(3-methylbenzylidene)hydrazinyl)-2-morpholino-9H-purin-9-yl)piperidin-1-yl)(morpholino)methanone], for which the IC50 in assay [1] lay in the range of 0.02 to 0.03 µM. In addition, the “ADP-Glo kinase assay (%, 10 nM)” value in assay [2] is recorded as 64.66%.

Turning to `Cc1cccc(/C=N/Nc2nc(N3CCOCC3)nc3c2ncn3CC(=O)c2cc(C(F)(F)F)ccn2)c1` [Example 52, (E)-2-(6-(2-(3-methylbenzylidene)hydrazinyl)-2-morpholino-9H-purin-9-yl)-1-(4-(trifluoromethyl)pyridin-2-yl)ethan-1-one], in assay [1], the IC50 was 0.02 to 0.03 µM. The “ADP-Glo kinase assay (%, 10 nM)” value in assay [2] worked out at 67.10%.

As to `Cc1cccc(/C=N/Nc2nc(N3CCOCC3)nc3c2ncn3CC(=O)c2cccc(C#N)c2)c1` [Example 36, (E)-3-(2-(6-(2-(3-methylbenzylidene)hydrazinyl)-2-morpholino-9H-purin-9-yl)acetyl)benzonitrile], the half-maximal inhibitory concentration (IC50) in assay [1] fell in the range of 0.01 to 0.02 µM. Besides, in assay [2], the “ADP-Glo kinase assay (%, 10 nM)” value turned out to be 76.04%.

Turning to `Cc1cccc(/C=N/Nc2nc(N3CCOCC3)nc3c2ncn3-c2ccc(Cl)cn2)c1` [Example 116, (E)-4-(9-(5-chloropyridin-2-yl)-6-(2-(3-methylbenzylidene)hydrazinyl)-9H-purin-2-yl)morpholine], in assay [1], the half-maximal inhibitory concentration (IC50) was no more than 0.01 µM. Moreover, the “ADP-Glo kinase assay (%, 10 nM)” value in assay [2] is recorded as 87.75%.

In turn, `Cc1cccc(/C=N/Nc2nc(N3CCOCC3)nc3c2ncn3-c2ccnc(Cl)c2)c1` [Example 115, (E)-4-(9-(2-chloropyridin-4-yl)-6-(2-(3-methylbenzylidene)hydrazinyl)-9H-purin-2-yl)morpholine] returned an IC50 in assay [1] of no more than 0.01 µM. The “ADP-Glo kinase assay (%, 10 nM)” value in assay [2] is reported as 92.24%.

With `Cc1cccc(/C=N/Nc2nc(N3CCOCC3)nc3c2ncn3CC(=O)c2cccc(Cl)c2)c1` [Example 49, (E)-1-(3-chlorophenyl)-2-(6-(2-(3-methylbenzylidene)hydrazinyl)-2-morpholino-9H-purin-9-yl)ethan-1-one], in assay [1], the IC50 is no more than 0.01 µM. The “ADP-Glo kinase assay (%, 10 nM)” value in assay [2] worked out at 78.87%.

In turn, `COC(=O)N1CCC(n2cnc3c(N/N=C/c4cccc(C)c4)nc(N4CCOCC4)nc32)CC1` [Example 91, methyl (E)-4-(6-(2-(3-methylbenzylidene)hydrazinyl)-2-morpholino-9H-purin-9-yl)piperidine-1-carboxylate] yielded an IC50 in assay [1] of 0.01 to 0.02 µM. In addition, the “ADP-Glo kinase assay (%, 10 nM)” value in assay [2] is recorded as 73.33%.

For `Cc1cccc(/C=N/Nc2nc(N3CCOCC3)nc3c2ncn3CC(=O)c2cccc(C)c2)c1` [Example 41, (E)-2-(6-(2-(3-methylbenzylidene)hydrazinyl)-2-morpholino-9H-purin-9-yl)-1-(m-tolyl)ethan-1-one], the IC50 in assay [1] was no more than 0.01 µM. Moreover, the “ADP-Glo kinase assay (%, 10 nM)” value in assay [2] was found to be 76.69%.

`Cc1cccc(/C=N/Nc2nc(N3CCOCC3)nc3c2ncn3CC(=O)c2ccccc2)c1` [Example 22, (E)-2-(6-(2-(3-methylbenzylidene)hydrazinyl)-2-morpholino-9H-purin-9-yl)-1-phenylethan-1-one] gave an IC50 in assay [1] of 0.01 to 0.02 µM. Further, the “ADP-Glo kinase assay (%, 10 nM)” value in assay [2] is 66.19%.

With `Cc1cccc(/C=N/Nc2nc(N3CCOCC3)nc3c2ncn3C2CCN(C(=O)N(C)C)CC2)c1` [Example 90, (E)-N,N-dimethyl-4-(6-(2-(3-methylbenzylidene)hydrazinyl)-2-morpholino-9H-purin-9-yl)piperidine-1-carboxamide], the IC50 in assay [1] lay in the range of 0.02 to 0.03 µM. In addition, the “ADP-Glo kinase assay (%, 10 nM)” value in assay [2] amounted to 66.88%.

As to `Cc1cccc(/C=N/Nc2nc(N3CCOCC3)nc3c2ncn3CC(=O)c2ccccc2C)c1` [Example 40, (E)-2-(6-(2-(3-methylbenzylidene)hydrazinyl)-2-morpholino-9H-purin-9-yl)-1-(o-tolyl)ethan-1-one], the IC50 in assay [1] was no more than 0.01 µM. The “ADP-Glo kinase assay (%, 10 nM)” value in assay [2] stood at 86.29%.

In turn, `C(=N\Nc1nc(N2CCOCC2)nc2c1ncn2-c1ccncc1)/c1c[nH]c2ccccc12` [Example 112, (E)-4-(6-(2-((1H-indol-3-yl)methylene)hydrazinyl)-9-(pyridin-4-yl)-9H-purin-2-yl)morpholine] displayed an IC50 in assay [1] of no more than 0.01 µM. For the same molecule, the “ADP-Glo kinase assay (%, 10 nM)” value in assay [2] was 89.10%.

On to `Cc1cccc(/C=N/Nc2nc(N3CCOCC3)nc3c2ncn3C2CCN(S(C)(=O)=O)CC2)c1` [Example 92, (E)-4-(6-(2-(3-methylbenzylidene)hydrazinyl)-9-(1-(methylsulfonyl)piperidin-4-yl)-9H-purin-2-yl)morpholino], for which the IC50 in assay [1] was in the range of 0.02 to 0.03 µM. Besides, the “ADP-Glo kinase assay (%, 10 nM)” value in assay [2] was found to be 61.82%.

`Cc1cccc(/C=N/Nc2nc(N3CCOCC3)nc3c2ncn3CCc2ccccn2)c1` [Example 73, (E)-4-(6-(2-(3-methylbenzylidene)hydrazinyl)-9-(2-(pyridin-2-yl)ethyl)-9H-purin-2-yl)morpholine]: in assay [1], the IC50 was 0.01 to 0.02 µM. Further, the “ADP-Glo kinase assay (%, 10 nM)” value in assay [2] turned out to be 80.98%.

`Cc1cccc(/C=N/Nc2nc(N3CCOCC3)nc3c2ncn3-c2ccc(O)nc2)c1` [Example 114, (E)-5-(6-(2-(3-methylbenzylidene)hydrazinyl)-2-morpholino-9H-purin-9-yl)pyridin-2-ol] showed an IC50 in assay [1] of 0.02 to 0.03 µM. In addition, the “ADP-Glo kinase assay (%, 10 nM)” value in assay [2] came out at 80.06%.

On to `COc1ccccc1C(=O)Cn1cnc2c(N/N=C/c3cccc(C)c3)nc(N3CCOCC3)nc21` [Example 37, (E)-1-(2-methoxyphenyl)-2-(6-(2-(3-methylbenzylidene)hydrazinyl)-2-morpholino-9H-purin-9-yl)ethan-1-one], for which the IC50 in assay [1] was no more than 0.01 µM. Besides, the “ADP-Glo kinase assay (%, 10 nM)” value in assay [2] is listed as 89.07%.

The molecule `Cc1cccc(/C=N/Nc2nc(N3CCOCC3)nc3c2ncn3CC(=O)c2ccc(Cl)cc2)c1` [Example 25, (E)-1-(4-chlorophenyl)-2-(6-(2-(3-methylbenzylidene)hydrazinyl)-2-morpholino-9H-purin-9-yl)ethan-1-one] gave an IC50 in assay [1] of 0.01 to 0.02 µM. The “ADP-Glo kinase assay (%, 10 nM)” value in assay [2] worked out at 72.46%.

In turn, `COc1ccc(-n2cnc3c(N/N=C/c4cccc(C)c4)nc(N4CCOCC4)nc32)nc1` [Example 108, (E)-4-(9-(5-methoxypyridin-2-yl)-6-(2-(3-methylbenzylidene)hydrazinyl)-9H-purin-2-yl)morpholine] came in with an IC50 in assay [1] of no more than 0.01 µM. Also, in assay [2], the “ADP-Glo kinase assay (%, 10 nM)” value is reported as 80.35%.

Turning to `Cc1cccc(/C=N/Nc2nc(N3CCOCC3)nc3c2ncn3-c2ccc(Cl)cc2)c1` [Example 100, (E)-4-(9-(4-chlorophenyl)-6-(2-(3-methylbenzylidene)hydrazinyl)-9H-purin-2-yl)morpholine], the IC50 in assay [1] is no more than 0.01 µM. For the same molecule, the “ADP-Glo kinase assay (%, 10 nM)” value in assay [2] is reported as 83.22%.

Consider `Cc1cccc(/C=N/Nc2nc(N3CCOCC3)nc3c2ncn3CC2CC2)c1` [Example 21, (E)-4-(9-(cyclopropylmethyl)-6-(2-(3-methylbenzylidene)hydrazinyl)-9H-purin-2-yl)morpholine], for which the IC50 in assay [1] was 0.02 to 0.03 µM. In addition, in assay [2], the “ADP-Glo kinase assay (%, 10 nM)” value is 60.95%.

Regarding `Cc1cccc(/C=N/n2cnc3c(Nc4cccnc4)nc(N4CCOCC4)nc32)c1` [Example 191, (E)-9-((3-methylbenzylidene)amino)-2-morpholino-N-(pyridin-3-yl)-9H-purin-6-amine], the IC50 in assay [1] was 0.01 to 0.02 µM. Further, the “ADP-Glo kinase assay (%, 10 nM)” value in assay [2] is 76.59%.

As for `Cc1cccc(/C=N/Nc2nc(N3CCOCC3)nc3c2ncn3CC(=O)c2cccc(F)c2)c1` [Example 46, (E)-1-(3-fluorophenyl)-2-(6-(2-(3-methylbenzylidene)hydrazinyl)-2-morpholino-9H-purin-9-yl)ethan-1-one], in assay [1], the IC50 was in the range of 0.01 to 0.02 µM. Moreover, the “ADP-Glo kinase assay (%, 10 nM)” value in assay [2] stood at 73.96%.

Usually IC50 stands for the concentration that inhibits the measured activity by half. A lower IC50 goes with inhibition by little substance.

The values above are taken from US20250388582A1, “NOVEL BICYCLIC HETEROARYL COMPOUND AND USE THEREOF” (ILDONG PHARMACEUTICAL CO., LTD., priority 2022, published 2025).
